The IC50 is the midpoint of a concentration-inhibition curve.

We go through 19 compounds from patent US9126952B2, “Morpholinylquinazolines” (Merck Patent GmbH, priority 2010, dated 2015).

The assay addresses DNA-PK (Homo sapiens (Human), UniProt P78527). The assay can be described thus: DNA-PK/biochemical assay (FlashPlate kinase assay). The conditions noted are these: 5 μM ATP, 90 min, room temperature; read-out: Binding DNA-PK IC50. As to the method: […] To this end, 1.5 μg of the DNA-PK/protein complex and 100 ng of biotinylated substrate, such as, for example, PESQEAFADLWKK biotin-NH2 (“biotin-DNA-PK peptide”), in a total volume of 36.5 μl (34.25 mM HEPES/KOH, 7.85 mM Tris-HCl, 68.5 mM KCl, 5 μM ATP, 6.85 mM MgCl2, 0.5 mM EDTA, 0.14 mM EGTA, 0.69 mM DTT, pH 7.4), were incubated at room temperature for 90 min with 500 ng of DNA from calf thymus, 0.1 μCi of 33P-ATP and 1.8% of DMSO per well with or without the test compound. The reaction was stopped using 50 μl/well of 200 mM EDTA. After incubation for a further 30 min at room temperature, the liquid was removed. Each well was washed three times with 100 μl of 0.9% sodium chloride solution. A non-specific reaction (blank value) was determined using 10 μM of a proprietary kinase inhibitor. The radioactivity measurement was carried out by means of a TopCount. IC50 values were calculated in RS1. • Literature: Kashishian et al. (2003) Molecular Cancer Therapeutics 1257.

For the compound `c1nc(N2CCCCC2)c2ccc(N3CCOCC3)cc2n1` [compound 1, 7-Morpholin-4-yl-4-piperidin-1-yl-quinazoline], the IC50 was below 0.1 µM. `Clc1nc(N2CCCCC2)c2ccc(N3CCOCC3)cc2n1` [compound 2]: the half-maximal inhibitory concentration (IC50) is below 0.1 µM. Regarding `COc1ccc(C2CCCN(c3ncnc4cc(N5CCOCC5)ccc34)C2)cc1` (stereo not shown) [compound 3, 4-[3-(4-Methoxy-phenyl)piperidin-1-yl]-7-morpholin-4-yl-quinazoline], the IC50 lay in the range of 0.1 to 0.5 µM. Consider `c1ccc(C2CCCN(c3ncnc4cc(N5CCOCC5)ccc34)C2)cc1` (stereo not shown) [compound 4, 7-Morpholin-4-yl-4-(3-phenylpiperidin-1-yl)quinazoline], for which the IC50 is below 0.1 µM. Under `c1ccc([C@@H]2CCCN(c3ncnc4cc(N5CCOCC5)ccc34)C2)cc1` [compound 5, 7-Morpholin-4-yl-4-((S)-3-phenyl-piperidin-1-yl)-quinazoline] stands 0.1 to 0.5 µM. Regarding `c1ccc([C@H]2CCCN(c3ncnc4cc(N5CCOCC5)ccc34)C2)cc1` [compound 6, 7-Morpholin-4-yl-4-((R)-3-phenyl-piperidin-1-yl)-quinazoline], the IC50 is below 0.1 µM. Under `c1nc(N2CCCC2)c2ccc(N3CCOCC3)cc2n1` [compound 7, 7-Morpholin-4-yl-4 pyrrolidin-1-yl-quinazoline] stands 0.1 to 0.5 µM; under `c1nc(N2CCCCCC2)c2ccc(N3CCOCC3)cc2n1` [compound 8, 4-Azepan-1-yl-7-morpholin-4-yl-quinazoline], 0.1 to 0.5 µM.

For `Fc1ccc2[nH]cc(C3CCCN(c4ncnc5cc(N6CCOCC6)ccc45)C3)c2c1` (stereo not shown) [compound 9, 4-[3-(5-Fluoro-1H-indol-3-yl)piperidin-1-yl]-7-morpholin-4 ylquinazoline], the IC50 fell in the range of 0.5 to 1 µM. On to `c1nc(N2CCCC(CC3CCCCC3)C2)c2ccc(N3CCOCC3)cc2n1` (stereo not shown) [compound 10], for which the IC50 was 0.5 to 1 µM. Under `c1ccc(C[C@@H]2CCCN(c3ncnc4cc(N5CCOCC5)ccc34)C2)cc1` [compound 11, 4-((S)-3-Benzyl-piperidin-1-yl)-7-morpholin-4-yl-quinazoline] stands 0.1 to 0.5 µM. As to `CC1CCCN(c2ncnc3cc(N4CCOCC4)ccc23)C1` (stereo not shown) [compound 12, 4-(3-Methylpiperidin-1-yl)-7-morpholin-4-ylquinazoline], the IC50 lay within 0.1 to 0.5 µM.

On to `c1ccn(CC2CCCN(c3ncnc4cc(N5CCOCC5)ccc34)C2)c1` (stereo not shown) [compound 13, 7-Morpholin-4-yl-4-(3-pyrrol-1-ylmethyl-piperidin-1-yl)-quinazoline], for which the IC50 is below 0.1 µM. Under `c1ccc2sc(C3CCCN(c4ncnc5cc(N6CCOCC6)ccc45)C3)nc2c1` (stereo not shown) [compound 14, 4-(3-Benzothiazol-2-ylpiperidin-1-yl)-7-morpholin-4-yl-quinazoline] stands below 0.1 µM; under `OC1(c2ccccc2)CCCN(c2ncnc3cc(N4CCOCC4)ccc23)C1` (stereo not shown) [compound 15, 1-(7-Morpholin-4-yl-quinazoline-4-yl)-3-phenylpiperidin-3-ol], 0.5 to 1 µM; under `O=C(c1ccc(F)cc1)C1CCCN(c2ncnc3cc(N4CCOCC4)ccc23)C1` (stereo not shown) [compound 16, (4-Fluorophenyl)-[1-(7-morpholin-4-yl-quinazoline-4-yl)-piperidin-3-yl]-methanone], 0.1 to 0.5 µM. Under `NC(=O)C1CCCN(c2ncnc3cc(N4CCOCC4)ccc23)C1` (stereo not shown) [compound 17, 1-(7-Morpholin-4-yl-quinazoline-4-yl)-piperidin-3-carboxamide] stands 0.5 to 1 µM; under `CCOCC1CCCN(c2ncnc3cc(N4CCOCC4)ccc23)C1` (stereo not shown) [compound 18, 4-(3-Ethoxymethyl-piperidin-1-yl)-7-morpholin-4-yl-quinazoline], 0.1 to 0.5 µM; under `Cc1noc(C2CCCN(c3ncnc4cc(N5CCOCC5)ccc34)C2)n1` (stereo not shown) [compound 19, 4-[3-(3-Methyl-1,2,4-oxadiazol-5-yl)-piperidin-1-yl]-7-morpholin-4-yl-quinazoline], 0.5 to 1 µM.
